Test results published in US11767341B2, “Lincosamide antibiotics and uses thereof” (President and Fellows of Harvard College, priority 2017, dated 2023).
≈ marks a conversion by molar mass, not a printed value. Like-named read-outs stand apart in the source and are kept apart here.

How the values were obtained:
Experiment in all cases: MIC determination
Assay type in all cases: cell-based
P. aeruginosa ATCC 27853 = settings: Pseudomonas aeruginosa, ATCC27853
[1] = system: S. pneumoniae MMX 3028 cErmB; settings: Streptococcus pneumoniae, MMX3028CERMB
[2] = system: S. pneumoniae MMX 3031 cMefA; settings: Streptococcus pneumoniae, MMX3031CMEFA
[3] = system: E. coli MP-74 LptD mutant; settings: Escherichia coli
[4] = system: E. faecalis MMX 847 Macrolide-Resistant; settings: Enterococcus faecalis
S. aureus MMX 3035 cErmA = settings: Staphylococcus aureus, MMX3035CERMA; S. aureus MMX 3035 cErmA; read-out: MIC
[5] = system: S. aureus MP-549 msr(a) USA 300; settings: Staphylococcus aureus, USA300, S. aureus MP-549 msr(a) USA 300
B. fragilis ATCC 25285 = settings: Bacteroides fragilis, ATCC25285; B. fragilis ATCC 25285; read-out: MIC
C. difficile BAA 1805 = settings: Clostridioides difficile, BAA1805
S. aureus BAA 977 iErmA = settings: Staphylococcus aureus, BAA977
[6] = system: P. aeruginosa MMX Mex parent strain; settings: Pseudomonas aeruginosa
[7] = system: S. aureus Micromyx USA 300; settings: Staphylococcus aureus, USA300; S. aureus Micromyx USA 300; read-out: MIC
E. faecalis ATCC 29212 = settings: Enterococcus faecalis, ATCC29212
H. influenzae ATCC 49247 = settings: Haemophilus influenzae, ATCC49247; H. influenzae ATCC 49247; read-out: MIC
S. pneumoniae ATCC 49619 = settings: Streptococcus pneumoniae, ATCC49619; S. pneumoniae ATCC 49619; read-out: MIC
K. pneumoniae ATCC 10031 = settings: Klebsiella pneumoniae, ATCC10031
[8] = system: P. aeruginosa MMX 3476 Δmex; settings: Pseudomonas aeruginosa
[9] = system: E. coli MMX TolC parent strain; settings: Escherichia coli
S. pyogenes ATCC 19615 = settings: Streptococcus pyogenes, ATCC19615; S. pyogenes ATCC 19615; read-out: MIC
[10] = system: S. pyogenes MMX 946 Macrolide-Resistant; settings: Streptococcus pyogenes; S. pyogenes MMX 946 Macrolide-Resistant (MacRes); read-out: MIC
E. coli MP-9 ΔTolC = settings: Escherichia coli
S. aureus ATCC 29213 = settings: Staphylococcus aureus
E. coli MMX 0121 ΔTolC = settings: Escherichia coli
E. coli ATCC 25922 = settings: Escherichia coli
[11] = system: S. aureus MP-513 clinical cErm; settings: Staphylococcus aureus
[12] = K. pneumoniae ATCC 10031, read-out: MIC
[13] = ATCC29213, S. aureus ATCC 29213, read-out: MIC

Row | Structure (SMILES) | MIC [2] [µg/mL] | MIC (S. aureus MMX 3035 cErmA) [µg/mL] | MIC [5] [µg/mL] | MIC (B. fragilis ATCC 25285) [µg/mL] | MIC (S. aureus BAA 977 iErmA) [µg/mL] | MIC [7] [µg/mL] | MIC (E. faecalis ATCC 29212) [µg/mL] | MIC (H. influenzae ATCC 49247) [µg/mL] | MIC (S. pneumoniae ATCC 49619) [µg/mL] | MIC (K. pneumoniae ATCC 10031; [12]) [µg/mL] | MIC [8] [µg/mL] | MIC (S. pyogenes ATCC 19615) [µg/mL] | MIC [10] [µg/mL] | MIC (E. coli MP-9 ΔTolC) [µg/mL] | MIC (S. aureus ATCC 29213; [13]) [µg/mL] | MIC (E. coli MMX 0121 ΔTolC) [µg/mL] | MIC (P. aeruginosa ATCC 27853) [µg/mL] | MIC (E. coli ATCC 25922; ATCC25922) [µg/mL] | MIC [11] [µg/mL] | MIC (K. pneumoniae ATCC 10031) [µg/mL] | also measured
1 | CSC1O[C@H]([C@H](NC(=O)[C@H]2NC[C@@H]3C[C@H]4C[C@H]4CO[C@H]32)[C@H](C)Cl)C(O)C(O)[C@H]1O (stereo in doubt) [FSA-507007] | 0.12 (≈ 0.266 µM) | > 64 | 0.25 (≈ 0.554 µM) | 32 (≈ 71 µM) | 0.5 (≈ 1.11 µM) | 0.12 (≈ 0.266 µM) | 16 (≈ 35.5 µM) | 2 (≈ 4.43 µM) | 0.12 (≈ 0.266 µM) | > 64 | 64 (≈ 142 µM) | ≤ 0.06 | 32 (≈ 71 µM) | 16 (≈ 35.5 µM) | 0.25 (≈ 0.554 µM) | 8 (≈ 17.7 µM) | – | – | – | – | MIC (P. aeruginosa ATCC 27853; P. aeruginosa ATCC 27853, read-out: MIC): > 64 µg/mL; MIC [1]: 64 µg/mL (≈ 142 µM); MIC [3]: 16 µg/mL (≈ 35.5 µM); MIC ([4]; E. faecalis MMX 847 Macrolide-Resistant (MacRes), read-out: MIC): > 64 µg/mL; MIC (C. difficile BAA 1805; C. difficile BAA 1805, read-out: MIC): 4 µg/mL (≈ 8.87 µM); MIC ([6]; P. aeruginosa MMX Mex parent strain, read-out: MIC): > 64 µg/mL; MIC ([9]; E. coli MMX TolC parent strain, read-out: MIC): > 64 µg/mL; MIC (E. coli ATCC 25922; ATCC25922, E. coli ATCC 25922, read-out: MIC): > 64 µg/mL
2 | CSC1O[C@H]([C@H](NC(=O)[C@@H]2[C@@H]3OCC=CC[C@H]3CN2C)[C@H](C)Sc2ccc(-c3cncnc3)cc2)C(O)[C@@H](O)[C@H]1O (stereo partly drawn) [FSA-212034] | ≤ 0.06 | 32 (≈ 53.1 µM) | 0.5 (≈ 0.829 µM) | 1 (≈ 1.66 µM) | 0.25 (≈ 0.415 µM) | 0.25 (≈ 0.415 µM) | 16 (≈ 26.5 µM) | 4 (≈ 6.64 µM) | ≤ 0.06 | 64 (≈ 106 µM) | > 64 | ≤ 0.06 | 2 (≈ 3.32 µM) | 16 (≈ 26.5 µM) | 0.25 (≈ 0.415 µM) | 1 (≈ 1.66 µM) | > 64 | > 64 | – | – | MIC ([1]; S. pneumoniae MMX 3028 cErmB, read-out: MIC): 4 µg/mL (≈ 6.64 µM); MIC [4]: > 64 µg/mL; MIC (C. difficile BAA 1805): 0.5 µg/mL (≈ 0.829 µM); MIC [6]: > 64 µg/mL; MIC [9]: > 64 µg/mL
3 | CSC1O[C@H]([C@H](NC(=O)[C@H]2NC[C@@H]3CNCCO[C@H]32)[C@H](C)Cl)C(O)C(O)[C@H]1O (stereo partly drawn) [FSA-503001] | – | – | > 64 | – | > 64 | – | – | – | – | – | – | – | – | > 64 | 64 (≈ 145 µM) | – | > 64 | > 64 | > 64 | > 64 | –
4 | CSC1O[C@H]([C@H](NC(=O)[C@H]2NC[C@@H]3CN(C)CCO[C@H]32)[C@H](C)Cl)C(O)C(O)[C@H]1O (stereo partly drawn) [FSA-503002] | – | – | > 64 | – | > 64 | – | – | – | – | – | – | – | – | > 64 | 64 (≈ 141 µM) | – | > 64 | > 64 | > 64 | > 64 | –
5 | CSC1O[C@H]([C@H](NC(=O)[C@H]2NC[C@@H]3CN(C(=N)N)CCO[C@H]32)[C@H](C)Cl)C(O)C(O)[C@H]1O (stereo partly drawn) [FSA-504057] | – | – | – | – | – | – | – | – | – | – | – | – | – | > 64 | – | – | > 64 | > 64 | > 64 | > 64 | MIC (S. aureus ATCC 29213; ATCC29213): > 64 µg/mL
6 | CSC1O[C@H]([C@H](NC(=O)[C@H]2NC[C@@H]3CN(CC(=O)O)CCO[C@H]32)[C@H](C)Cl)C(O)C(O)[C@H]1O (stereo partly drawn) [FSA-504063] | – | – | – | – | – | – | – | – | – | – | – | – | – | > 64 | – | – | > 64 | > 64 | > 64 | > 64 | MIC (S. aureus ATCC 29213; ATCC29213): > 64 µg/mL
